From patent US20050146723A1, “Method for measuring surface plasmon resonance” (FUJI PHOTO FILM CO., LTD., priority 2003, published 2005)

Tested on: trypsin
Experiment: Evaluation of leupeptin-binding ability on trypsin-immobilized chip by surface plasmon resonance
Settings: 10 min after initiation of replacement
Procedure: The solution in the above-describe dextran measurement chip was removed therefrom. Thereafter, 70 μl of a mixed solution consisting of 200 mM EDC (N-ethyl-N′-(3-dimethylaminopropyl)carbodiimide hydrochloride) and 50 mM NHS (N-hydroxysuccinimide) was added to the measurement chip, and it was then left for 10 minutes. The mixed solution was removed from the measurement chip, and the chip was then washed with 100 μl of water 3 times, and then with 100 μl of buffer 1 (100 mM HEPES (N-2-hydroxyethylpiperazin-N′-2-ethanesulfonic acid), 150 mM NaCl, 10 mM CaCl2) 3 times. The chip containing 100 μl of buffer 1 was installed in the surface plasmon resonance measurement device of the present invention. The inside of the chip was replaced with a trypsin solution (produced by dissolving trypsin in buffer 1 to a concentration of 1 mg/ml), and it was then left for 30 minutes, so as to immobilize trypsin. Thereafter, the inside of the chip was replaced with a 1 M ethanolamine solution, and it was then left for 10 minutes. Thereafter, the inside of the chip was washed with 100 μl of buffer 1 ten times. The amount of a change in resonance signals due to immobilization of trypsin was 2,000 RU.
With regard to the trypsin-immobilized chip of the present invention, the dielectric block was capped with silicon rubber, so as to produce a cell with an internal volume of 15 μl. In the case of such a block cell, the volume of the cell is determined with a space surrounded by the measurement chip and the cap. Two holes each having a diameter of 1 mm were formed through the silicon rubber used as a cap, and a Teflon tube having an inside diameter of 0.5 mm and an outside diameter of 1 mm was passed through each of these holes, so as to produce a flow channel. Likewise, a cap and a flow channel were produced for a reference chip. Thereafter, the two chips were connected in series, so as to produce a flow channel system. Each of the two chips in this flow channel system was installed in the surface plasmon resonance measurement device of the present invention.
The inside of the flow channel system was filled with buffer 2 (10 mM HEPES, 150 mM NaCl). Defining the state before the exchange of the liquid as a standard, a change in signals was measured at intervals of 0.5 seconds. The inside of the flow channel system was replaced with a leupeptin solution produced by dissolving leupeptin in buffer 2 to a concentration of 1 μg/ml) by each method described in Table 1. The level of noise generated on the reference chip side at 2 to 10 minutes after initiation of the replacement, and changes in signals on the trypsin-immobilized chip side and on the reference chip side at 10 minutes after initiation of the replacement, are shown in Table 1. In order to obtain binding detection data with high reliability, it is preferable that the width of noise level (the difference between the maximum and the minimum in a change in signals) be within 10 RU, and that the base line fluctuation, that is, the change in signals on the reference chip side be within 10 RU. More preferably, the above values are both within 5 RU.
The inside of the flow channel system was filled with buffer 2 (10 mM HBPES, 150 mM NaCl). Defining the state before the exchange of the liquid as a standard, a change in signals was measured at intervals of 0.5 seconds. The inside of the flow channel system was replaced with a leupeptin solution (produced by dissolving leupeptin in buffer 2 to a concentration of 1 μg ml) by each method described in Table 2. The level of noise generated on the reference chip side at 2 to 10 minutes after initiation of the replacement, and changes in signals on the trypsin-immobilized chip side and on the reference chip side at 10 minutes after initiation of the replacement, are shown in Table 2. […]

CC(=O)N[C@@H](CC(C)C)C(=O)N[C@@H](CC(C)C)C(=O)N[C@H](C=O)CCCNC(=N)N [leupeptin]
Signal change Immobilized chip (Table 1 method No. 1: leupeptin 1 μg/ml, flow 4 ml/min, exchange 0.125 min, termination 9.875 min, Ve/Vs 16.7): 19 RU
Signal change Immobilized chip (Table 1 method No. 2: leupeptin 1 μg/ml, flow 4 ml/min, exchange 0.25 min, termination 9.75 min, Ve/Vs 33.3): 21 RU
Signal change Immobilized chip (Table 1 method No. 3: leupeptin 1 μg/ml, flow 4 ml/min, exchange 1 min, termination 9 min, Ve/Vs 133.3): 20 RU
Signal change Immobilized chip (Table 1 method No. 4: leupeptin 1 μg/ml, flow 4 ml/min, exchange 1.5 min, termination 8.5 min, Ve/Vs 200.0): 21 RU
Signal change Immobilized chip (Table 1 method No. 5 (comparative): leupeptin 1 μg/ml, flow 4 ml/min, exchange 10 min, termination 0 min, Ve/Vs 1333.3): 12 RU
Signal change Immobilized chip (Table 1 method No. 6 (comparative): leupeptin 1 μg/ml, flow 2 ml/min, exchange 10 min, termination 0 min, Ve/Vs 666.7): 25 RU
Signal change Immobilized chip (Table 1 method No. 7 (comparative): leupeptin 1 μg/ml, flow 1 ml/min, exchange 10 min, termination 0 min, Ve/Vs 333.3): 18 RU
Signal change Immobilized chip (Table 1 method No. 8 (comparative): leupeptin 1 μg/ml, flow 0.5 ml/min, exchange 10 min, termination 0 min, Ve/Vs 166.7): 26 RU
Signal change Immobilized chip (Table 2 method No. 1: leupeptin 1 μg ml, flow 4 ml/min, exchange 0.125 min, termination 9.875 min, Ve/Vs 16.7): 19 RU
Signal change Immobilized chip (Table 2 method No. 2: leupeptin 1 μg ml, flow 4 ml/min, exchange 0.25 min, termination 9.75 min, Ve/Vs 33.3): 21 RU
Signal change Immobilized chip (Table 2 method No. 3 (comparative): leupeptin 1 μg ml, flow 4 ml/min, exchange 10 min, termination 0 min, Ve/Vs 1333.3): 12 RU
Signal change Immobilized chip (Table 2 method No. 4 (comparative): leupeptin 1 μg ml, flow 2 ml/min, exchange 10 min, termination 0 min, Ve/Vs 666.7): 25 RU
Signal change Immobilized chip (Table 2 method No. 5 (comparative): leupeptin 1 μg ml, flow 1 ml/min, exchange 10 min, termination 0 min, Ve/Vs 333.3): 18 RU
Signal change Immobilized chip (Table 2 method No. 6 (comparative): leupeptin 1 μg ml, flow 0.5 ml/min, exchange 10 min, termination 0 min, Ve/Vs 166.7): 26 RU
Signal change Immobilized chip (Table 2 method No. 7: leupeptin 1 μg ml, flow 0.2 ml/min, exchange 10 min, termination 0 min, Ve/Vs 66.7): 22 RU
Signal change Immobilized chip (Table 2 method No. 8: leupeptin 1 μg ml, flow 0.1 ml/min, exchange 10 min, termination 0 min, Ve/Vs 33.3): 20 RU
